Measurements taken from ChEMBL document CHEMBL1201862, “PubChem BioAssay data set” (2004).
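96-well plates; 48 h exposure; 5 concentrations. Endpoints by linear interpolation between flanking doses. Not reached: highest tested concentration assigned. The concentration for 50% growth inhibition is given as GI50.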 Activity calls are given as the source filed them. No stated cut-off is given here; in the data, active = GI50 up to about 1.1 µM and inactive = higher.

Legend:
Assay in all cases: growth of human tumour cells (NCI), 48 h
786-0 = system: 786-0
A498 = system: A498
CAKI-1 = system: CAKI-1
DU-145 = system: DU-145
HCC 2998 = system: HCC 2998
HL-60 = system: HL-60
HOP-92 = system: HOP-92
IGROV-1 = system: IGROV-1
K562 = system: K562
NCI/ADR-RES = system: NCI/ADR-RES
RPMI-8226 = system: RPMI-8226
SF-268 = system: SF-268
SNB-75 = system: SNB-75
SW-620 = system: SW-620
TK-10 = system: TK-10
UACC-257 = system: UACC-257
COLO 205 = system: COLO 205
SN12C = system: SN12C
UACC-62 = system: UACC-62
A549 = system: A549

Measured: GI50

O=C1/C(=C/c2ccccc2O)N=C(c2ccccc2)N1c1nc2ccccc2s1
inactive: 786-0 14.5 µM | A498 20.4 µM | CAKI-1 32.7 µM | DU-145 27.3 µM | HCC 2998 13.7 µM | HL-60 1.21 µM | HOP-92 29.9 µM | IGROV-1 15.6 µM | K562 7.85 µM | NCI/ADR-RES 14.5 µM | RPMI-8226 19.1 µM | SF-268 20.2 µM | SNB-75 21.4 µM | SW-620 11.2 µM | TK-10 23.8 µM | UACC-257 19.8 µM

Cc1c(O)nc(-n2[nH]c3c(c2=O)CCCC3)[nH]c1=O
inactive: 786-0 > 100 µM | A498 > 100 µM | CAKI-1 > 100 µM | COLO 205 > 100 µM | DU-145 > 100 µM | HL-60 > 100 µM | HOP-92 > 100 µM | IGROV-1 > 100 µM | K562 > 100 µM | NCI/ADR-RES > 100 µM | RPMI-8226 > 100 µM | SF-268 > 100 µM | SN12C > 100 µM | SW-620 > 100 µM | TK-10 > 100 µM | UACC-257 > 100 µM | UACC-62 > 100 µM

O=C1CSC(c2cccc(Cl)c2)N1c1ccc(-c2ccc(-n3c(-c4ccccc4)nc4ccccc4c3=O)cc2)cc1 (stereo unspecified)
inactive: 786-0 43.6 µM | A498 > 100 µM | A549 54.2 µM | CAKI-1 > 100 µM | COLO 205 34.6 µM | DU-145 53.7 µM | HCC 2998 15.1 µM | HL-60 21.8 µM | HOP-92 17.1 µM | IGROV-1 77.4 µM | K562 35.6 µM | NCI/ADR-RES 36.9 µM | RPMI-8226 42.8 µM | SF-268 54.1 µM | SN12C 62.4 µM | SW-620 > 100 µM | TK-10 32.6 µM | UACC-257 80.5 µM | UACC-62 31.4 µM

C/C(=N\N=C1/C(=O)OC(c2ccccc2)=C1C(=O)c1ccccc1)c1ccc([N+](=O)[O-])cc1
inactive: 786-0 68.7 µM | A498 > 100 µM | A549 41.7 µM | CAKI-1 48.2 µM | COLO 205 52.2 µM | DU-145 44.4 µM | HCC 2998 47.9 µM | HL-60 35.8 µM | HOP-92 20.5 µM | IGROV-1 29.2 µM | K562 35 µM | NCI/ADR-RES 60.7 µM | RPMI-8226 21.5 µM | SF-268 > 100 µM | SN12C 49.4 µM | SW-620 46.7 µM | TK-10 > 100 µM | UACC-257 > 100 µM | UACC-62 38.9 µM

CON(C)C(=O)CNC(=O)OCC1c2ccccc2-c2ccccc21
inactive: 786-0 > 100 µM | A498 57.5 µM | A549 > 100 µM | COLO 205 > 100 µM | DU-145 > 100 µM | HCC 2998 > 100 µM | HL-60 25.5 µM | HOP-92 93.1 µM | IGROV-1 > 100 µM | K562 40.7 µM | NCI/ADR-RES > 100 µM | RPMI-8226 36.2 µM | SF-268 > 100 µM | SN12C > 100 µM | SNB-75 > 100 µM | SW-620 > 100 µM | TK-10 > 100 µM | UACC-257 > 100 µM | UACC-62 > 100 µM

O=C(CC(c1ccccc1)C(C(=O)c1ccncc1)C(CC(=O)c1ccncc1)c1ccccc1)c1ccncc1 (stereo unspecified)
inactive: 786-0 68.2 µM | A498 71.8 µM | A549 26.7 µM | CAKI-1 > 100 µM | COLO 205 > 100 µM | DU-145 96.6 µM | HCC 2998 > 100 µM | HL-60 > 100 µM | HOP-92 48.3 µM | IGROV-1 28.4 µM | NCI/ADR-RES 49.3 µM | RPMI-8226 > 100 µM | SF-268 32.4 µM | SNB-75 23.7 µM | SW-620 > 100 µM | TK-10 47.5 µM | UACC-257 > 100 µM | UACC-62 86.1 µM

CCN(CC)c1ccc(/C=C/C=C2C(=O)NC(=S)NC2=O)cc1
inactive: 786-0 27.7 µM | A498 > 100 µM | A549 > 100 µM | CAKI-1 > 100 µM | COLO 205 > 100 µM | DU-145 20.9 µM | HCC 2998 27.2 µM | HL-60 2.62 µM | HOP-92 77.8 µM | IGROV-1 > 100 µM | NCI/ADR-RES 10.4 µM | RPMI-8226 > 100 µM | SF-268 22.5 µM | SN12C 29.9 µM | SNB-75 28.9 µM | SW-620 > 33.9 µM | TK-10 > 62.2 µM | UACC-257 58.6 µM | UACC-62 15.1 µM

Cc1ccc(S(=O)(=O)N2CCCN(S(=O)(=O)c3ccc(C)cc3)CCN(S(=O)(=O)c3ccc(C)cc3)CCCSCC2)cc1
inactive: 786-0 45.2 µM | A498 > 100 µM | A549 > 100 µM | COLO 205 > 100 µM | DU-145 > 100 µM | HCC 2998 > 100 µM | HL-60 > 100 µM | HOP-92 > 100 µM | IGROV-1 > 100 µM | K562 > 100 µM | NCI/ADR-RES > 100 µM | RPMI-8226 > 100 µM | SF-268 > 100 µM | SN12C > 100 µM | SNB-75 > 100 µM | SW-620 > 100 µM | UACC-62 > 100 µM

CO[C@@H]1[C@@H](OC2OC(C)C(OC3CC(C)(O)C(OC(=O)CC(C)C)C(C)O3)C(N(C)C)C2O)[C@@H](CC=O)C[C@@H](C)C(=O)/C=C/C2O[C@H]2C[C@@H](C)OC(=O)C[C@H]1OC(C)=O (stereo partly specified)
inactive: 786-0 20 µM | A498 23 µM | A549 32 µM | COLO 205 12.9 µM | DU-145 14.6 µM | HCC 2998 17.7 µM | HL-60 6.47 µM | HOP-92 4.46 µM | IGROV-1 10.8 µM | K562 12.1 µM | NCI/ADR-RES 31 µM | RPMI-8226 17.7 µM | SF-268 79.1 µM | SN12C 15.4 µM | SNB-75 31.6 µM | SW-620 17.5 µM | TK-10 24.9 µM | UACC-257 17.2 µM | UACC-62 21.4 µM

CCNC(=O)NNc1ncnc2c1c(-c1ccc(Cl)cc1)cn2-c1ccc(C)cc1
inactive: 786-0 18.6 µM | A498 15.7 µM | A549 17.7 µM | CAKI-1 25.4 µM | COLO 205 15.9 µM | DU-145 21.5 µM | HCC 2998 17.5 µM | HL-60 16 µM | HOP-92 18.2 µM | IGROV-1 20.5 µM | K562 18.6 µM | NCI/ADR-RES 20 µM | SF-268 19 µM | SN12C 16.5 µM | SNB-75 16.7 µM | SW-620 21.2 µM | TK-10 34.2 µM | UACC-257 21.3 µM | UACC-62 15.3 µM

COc1ccc(C)cc1NC(=S)N/N=C/c1ccco1
inactive: 786-0 38 µM | A498 57.3 µM | A549 48.4 µM | CAKI-1 55.2 µM | COLO 205 21.8 µM | DU-145 > 100 µM | HCC 2998 36.5 µM | HL-60 22 µM | HOP-92 64.6 µM | IGROV-1 35.8 µM | K562 25.9 µM | NCI/ADR-RES 31.4 µM | RPMI-8226 21.4 µM | SF-268 56.1 µM | SN12C 45.3 µM | SNB-75 39.9 µM | SW-620 36.5 µM | UACC-257 30.9 µM | UACC-62 46.8 µM

COC(=O)c1cc(C)n(CN(Cn2nc(C(=O)OC)cc2C)c2ccccc2)n1
inactive: 786-0 24.5 µM | A498 > 100 µM | A549 73.3 µM | CAKI-1 37.8 µM | COLO 205 16 µM | DU-145 25.9 µM | HL-60 4.7 µM | HOP-92 66.1 µM | IGROV-1 43 µM | K562 20 µM | NCI/ADR-RES 21.2 µM | RPMI-8226 17.3 µM | SF-268 34 µM | SN12C 55.1 µM | SW-620 29.6 µM | TK-10 > 100 µM | UACC-257 33.3 µM | UACC-62 15.1 µM

CCCCN1/C(=N/Nc2n[nH]c(=O)c3ccccc23)SCC1c1ccc(Cl)cc1 (stereo unspecified)
inactive: 786-0 20 µM | A498 3.47 µM | A549 5.26 µM | CAKI-1 20.3 µM | COLO 205 11.8 µM | DU-145 22.2 µM | HL-60 14.9 µM | HOP-92 57.9 µM | IGROV-1 6.43 µM | K562 8.17 µM | NCI/ADR-RES 8.79 µM | RPMI-8226 4.72 µM | SF-268 6.64 µM | SN12C 24.6 µM | SNB-75 18.6 µM | SW-620 19.8 µM | TK-10 33.9 µM | UACC-257 12.2 µM | UACC-62 7.31 µM

CCNC12CCC(C1)C(C)(C)C2=O (stereo unspecified)
inactive: 786-0 > 100 µM | A498 > 100 µM | A549 > 100 µM | CAKI-1 > 100 µM | COLO 205 > 100 µM | DU-145 > 100 µM | HCC 2998 > 100 µM | HL-60 > 100 µM | HOP-92 > 100 µM | IGROV-1 > 100 µM | K562 > 100 µM | NCI/ADR-RES > 100 µM | RPMI-8226 > 100 µM | SN12C > 100 µM | SNB-75 > 100 µM | SW-620 > 100 µM | TK-10 > 100 µM | UACC-257 > 100 µM | UACC-62 > 100 µM

O=c1c2ccccc2n2c(-c3ccc(O)cc3)nnc2n1-c1ccccc1
inactive: 786-0 17.9 µM | A498 13 µM | A549 20.5 µM | CAKI-1 29.6 µM | COLO 205 77.6 µM | DU-145 21.9 µM | HCC 2998 49.1 µM | HL-60 62.8 µM | HOP-92 23.3 µM | IGROV-1 18.1 µM | K562 13.4 µM | NCI/ADR-RES 21.5 µM | SF-268 21.8 µM | SN12C 17.1 µM | SNB-75 18.7 µM | SW-620 13.5 µM | TK-10 26.5 µM | UACC-257 21.5 µM | UACC-62 19.6 µM
